Data from the NIST ThermoML archive (doi:10.1016/j.jct.2017.11.007).

Assay: mn = molality of the nth substance listed, in mol/kg
Settings: 74.66 kPa, Liquid; for speed of sound: Frequency=3 MHz, Single path-length method; for mass density: Vibrating tube method

Cc1cc(C)nc([N-]S(=O)(=O)c2ccc(N)cc2)n1.[Na+] + O
Settings | mass density [kg/m3] | speed of sound [m/s]
278.15 K, m1 = 0.00501 | 1000.54 | 1427.9
278.15 K, m1 = 0.00799 | 1000.88 | 1428.7
278.15 K, m1 = 0.01 | 1001.11 | 1429.2
278.15 K, m1 = 0.01488 | 1001.67 | 1430.3
278.15 K, m1 = 0.01983 | 1002.23 | 1431.3
278.15 K, m1 = 0.02501 | 1002.81 | 1432.3
278.15 K, m1 = 0.02961 | 1003.34 | 1433.5
278.15 K, m1 = 0.03503 | 1003.95 | 1434.6
278.15 K, m1 = 0.0401 | 1004.52 | 1435.7
278.15 K, m1 = 0.04493 | 1005.06 | 1436.6
278.15 K, m1 = 0.04993 | 1005.63 | 1437.7
278.15 K, m1 = 0.05504 | 1006.2 | 1438.8
278.15 K, m1 = 0.05966 | 1006.73 | 1439.9
283.15 K, m1 = 0.00501 | 1000.27 | 1448.8
283.15 K, m1 = 0.00799 | 1000.6 | 1449.4
283.15 K, m1 = 0.01 | 1000.83 | 1449.9
283.15 K, m1 = 0.01488 | 1001.37 | 1450.9
283.15 K, m1 = 0.01983 | 1001.92 | 1451.9
283.15 K, m1 = 0.02501 | 1002.5 | 1452.9
283.15 K, m1 = 0.02961 | 1003.01 | 1453.9
283.15 K, m1 = 0.03503 | 1003.61 | 1455
283.15 K, m1 = 0.0401 | 1004.18 | 1456
283.15 K, m1 = 0.04493 | 1004.71 | 1456.8
283.15 K, m1 = 0.04993 | 1005.27 | 1457.8
283.15 K, m1 = 0.05504 | 1005.83 | 1458.8
283.15 K, m1 = 0.05966 | 1006.35 | 1459.8
288.15 K, m1 = 0.00501 | 999.659 | 1467.2
288.15 K, m1 = 0.00799 | 999.989 | 1467.8
288.15 K, m1 = 0.01 | 1000.21 | 1468.3
288.15 K, m1 = 0.01488 | 1000.75 | 1469.2
288.15 K, m1 = 0.01983 | 1001.29 | 1470.1
288.15 K, m1 = 0.02501 | 1001.86 | 1471.1
288.15 K, m1 = 0.02961 | 1002.36 | 1472
288.15 K, m1 = 0.03503 | 1002.95 | 1473
288.15 K, m1 = 0.0401 | 1003.51 | 1474
288.15 K, m1 = 0.04493 | 1004.03 | 1474.8
288.15 K, m1 = 0.04993 | 1004.58 | 1475.7
288.15 K, m1 = 0.05504 | 1005.14 | 1476.7
288.15 K, m1 = 0.05966 | 1005.65 | 1477.6
293.15 K, m1 = 0.00501 | 998.758 | 1483.5
293.15 K, m1 = 0.00799 | 999.081 | 1484
293.15 K, m1 = 0.01 | 999.302 | 1484.5
293.15 K, m1 = 0.01488 | 999.834 | 1485.3
293.15 K, m1 = 0.01983 | 1000.37 | 1486.2
293.15 K, m1 = 0.02501 | 1000.92 | 1487.1
293.15 K, m1 = 0.02961 | 1001.42 | 1487.9
293.15 K, m1 = 0.03503 | 1002 | 1488.9
293.15 K, m1 = 0.0401 | 1002.55 | 1489.8
293.15 K, m1 = 0.04493 | 1003.07 | 1490.5
293.15 K, m1 = 0.04993 | 1003.61 | 1491.4
293.15 K, m1 = 0.05504 | 1004.16 | 1492.3
293.15 K, m1 = 0.05966 | 1004.66 | 1493.2
298.15 K, m1 = 0.00501 | 997.59 | 1497.7
298.15 K, m1 = 0.00799 | 997.912 | 1498.2
298.15 K, m1 = 0.01 | 998.128 | 1498.6
298.15 K, m1 = 0.01488 | 998.655 | 1499.4
298.15 K, m1 = 0.01983 | 999.182 | 1500.2
298.15 K, m1 = 0.02501 | 999.733 | 1501.1
298.15 K, m1 = 0.02961 | 1000.22 | 1501.9
298.15 K, m1 = 0.03503 | 1000.79 | 1502.8
298.15 K, m1 = 0.0401 | 1001.34 | 1503.6
298.15 K, m1 = 0.04493 | 1001.85 | 1504.3
298.15 K, m1 = 0.04993 | 1002.39 | 1505.2
298.15 K, m1 = 0.05504 | 1002.93 | 1506
298.15 K, m1 = 0.05966 | 1003.42 | 1506.8
303.15 K, m1 = 0.00501 | 996.185 | 1510.1
303.15 K, m1 = 0.00799 | 996.504 | 1510.6
303.15 K, m1 = 0.01 | 996.718 | 1510.9
303.15 K, m1 = 0.01488 | 997.238 | 1511.7
303.15 K, m1 = 0.01983 | 997.76 | 1512.4
303.15 K, m1 = 0.02501 | 998.303 | 1513.2
303.15 K, m1 = 0.02961 | 998.79 | 1514
303.15 K, m1 = 0.03503 | 999.357 | 1514.8
303.15 K, m1 = 0.0401 | 999.892 | 1515.6
303.15 K, m1 = 0.04493 | 1000.4 | 1516.3
303.15 K, m1 = 0.04993 | 1000.93 | 1517.1
303.15 K, m1 = 0.05504 | 1001.47 | 1517.8
303.15 K, m1 = 0.05966 | 1001.95 | 1518.6
308.15 K, m1 = 0.00501 | 994.563 | 1520.7
308.15 K, m1 = 0.00799 | 994.878 | 1521.2
308.15 K, m1 = 0.01 | 995.089 | 1521.5
308.15 K, m1 = 0.01488 | 995.605 | 1522.2
308.15 K, m1 = 0.01983 | 996.12 | 1523
308.15 K, m1 = 0.02501 | 996.661 | 1523.7
308.15 K, m1 = 0.02961 | 997.14 | 1524.4
308.15 K, m1 = 0.03503 | 997.703 | 1525.2
308.15 K, m1 = 0.0401 | 998.234 | 1525.9
308.15 K, m1 = 0.04493 | 998.733 | 1526.6
308.15 K, m1 = 0.04993 | 999.258 | 1527.3
308.15 K, m1 = 0.05504 | 999.792 | 1528
308.15 K, m1 = 0.05966 | 1000.27 | 1528.7
